Literature values in US20040127402A1, “Injectible composition and method for treating degenerative animal joints” (priority 2002, published 2004).

Key:
[1] = animal studies

Substance: Hyaluronic acid
- duration of superiority to oral medications (osteoarthritis; in vivo, po): up to six
- duration of positive benefits (osteoarthritis; joint lavage prior to hyaluronic acid therapy): up to one
- chondroprotective effect [1]: mild chondroprotective effect
